Results reported in PMC10899660, “Global fungal-host interactome mapping identifies host targets of candidalysin” (Nature Communications, 2024).
Ends that are not written are not given here.

Tests used:
FaDu cells = assay: Western blot of CCNH and γ-H2AX, FaDu cells; type: cell-based; conditions: comparison toxins / low-dose Triton X-100
Protocol: (§1) Cells were lysed with cell lysis buffer (Beyotime, #P0013) on ice for 30 min. The supernatant of cell lysate was then collected in a table-top refrigerated centrifuge at 4 °C and 14,000 × g for 10 min. Protein concentration was determined by Pierce™ BCA Protein Assay Kit (Thermo Scientific™, #23227). Antibodies against the following proteins were used for Western blotting analysis: CCNH antibody (CST,Rabbit Source, Cat#2927, 1:1000 dilution), gama-H2AX antibody (CST, Rabbit Source, Cat#97185, 1:1000 dilution), GAPDH (D16H11) XP® Rabbit mAb (CST, Rabbit Source, Cat#5174 S, 1:1000 dilution), Anti-CDK2 (phospho T160) + CDK1 (phospho T161) antibody (Abcam, Rabbit Source, Cat#EPR17621, 1:1000 dilution), Anti-rabbit IgG, HRP-linked Antibody (CST, Goat Source, Cat#7074, 1:5000 dilution), […] Tag (D6W5B) Rabbit mAb (CST, Rabbit Source, Cat#14793, 1:1000 dilution), GFP (4B10) Mouse mAb (CST, Mouse Source, Cat #2955, 1:1000 dilution), Anti-mouse IgG,HRP-linked antibody (CST, Goat Source, Cat#7076, 1:5000 dilution). Membranes were treated with SuperSignal™ West Pico PLUS Chemiluminescent Substrate (Thermo Scientific™, #34577) prior to visualization in the Chemiluminescence Imaging Analysis System (BG-gdsAUTO720, Baygene). GAPDH was used as the loading control.

Cyclin H (CCNH) = target: T1, Cyclin H (CCNH) (Homo sapiens, UniProt P51946); assay: Surface plasmon resonance (SPR) on BIAcore; conditions: binding to CCNH; for kon: association rate, read-out: Ka
T1 construct: purchased Sino Biological Inc. Lot; ME12NO2769 (a lot number; catalogue number not given); host or cells: E. coli
T1 sequence (P51946 1-323): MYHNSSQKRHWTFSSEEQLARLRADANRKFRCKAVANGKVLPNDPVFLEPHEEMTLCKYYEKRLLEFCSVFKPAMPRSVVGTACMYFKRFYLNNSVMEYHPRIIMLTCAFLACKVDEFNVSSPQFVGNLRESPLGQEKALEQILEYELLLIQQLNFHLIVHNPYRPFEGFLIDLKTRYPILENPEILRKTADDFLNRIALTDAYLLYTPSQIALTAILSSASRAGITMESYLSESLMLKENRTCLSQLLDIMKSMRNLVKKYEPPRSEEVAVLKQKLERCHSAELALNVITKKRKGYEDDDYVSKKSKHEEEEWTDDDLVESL
Protocol: Recombinant Cyclin H (CCNH) protein with a C-HIS tag (Lot. ME12NO2769, 38.46 kDa) was obtained from Sino Biological Inc. and stored at −80 °C. In short, the cyclin H (Homo sapiens) gene was amplified by PCR and cloned into an expression vector which was transformed into E. coli followed by the selection and establishment of high expression transformants. The protein was purified using immobilized metal ion affinity chromatography and dissolved in PBS (pH 7.4). SPR measurement was performed with Biacore T200 instrument (GE), at 25 °C, with a flow rate of 30 μL/min. CM5 sensor chips, HBS-EP running buffer and the Amine Coupling Kit, including 1-ethyl-3(3-dimethylaminopropyl) carbodiimide hydrochloride (EDC), N-hydroxysuccinimide (NHS), 1.0 M ethanolamine-HCl (pH 8.5) were purchased from GE. The binding properties of candidalysin to CCNH were evaluated upon immobilization of CCNH onto CM5 chip surface in flow cell 2 (FC-2) using Biacore Amine Coupling Kit according to the manufacturer’s instructions. CCNH was diluted to 20 μg/ml in acetate buffer (pH 4.0) in advance and immobilized on the CM5 Chip following the EDC/NHS protocol. The reached immobilized target level was 1200 RU. The reference flow cell (FC-1) was blank-immobilized following the templated procedure. BIAcore measurements were performed starting from a 1:1 serial dilution of candidalysin following the templated multicycle analysis (association time 120 s, dissociation time 150 s, flow 30 μL/min). The SPR measurement for Ece1-II, Ece1-IV, Ece1-V and human cathelicidin (Solarbio, CLP0454) to CCNH were performed with Biacore 8 K instrument (GE) by PBST running buffer, and the other conditions were the same.

A549 cells = assay: Western blot of CCNH and γ-H2AX, A549 and CCNH-KD A549 cells; type: cell-based; conditions: A549, 10 μM, 4 h
Protocol: as §1

mellitin: pore forming toxin was tested, and the “DNA damage (CCNH and γ-H2AX expression)” value (FaDu cells) was “failed to induce severe DNA damage”.
FKRIVQRIKDFLRNLVPRTES [Amp] showed a kon (Cyclin H (CCNH)) of 3040 M⁻¹ s⁻¹ and a Kd (Cyclin H (CCNH); column pK, row KD (M)) of 6.26e-05 M.
In the case of Triton X-100, the “DNA damage (CCNH and γ-H2AX expression)” value (FaDu cells) is reported as “failed to induce severe DNA damage”.
In the case of CC[C@H](C)[C@H](NC(=O)CNC(=O)[C@H](C)NC(=O)[C@@H](NC(=O)[C@@H](NC(=O)[C@H](CO)NC(=O)[C@H](CC(=O)O)NC(=O)[C@@H](NC(=O)[C@H](CC(=O)O)NC(=O)[C@@H](N)CCC(=O)O)[C@@H](C)CC)C(C)C)C(C)C)C(=O)N[C@H](C(=O)N[C@@H](C)C(=O)N[C@@H](CC(=O)O)C(=O)N[C@@H](CCSC)C(=O)N1CCC[C@H]1C(=O)N[C@@H](Cc1ccccc1)C(=O)N[C@H](C(=O)N[C@H](C(=O)N[C@@H](CCCNC(=N)N)C(=O)N[C@@H](C)C(=O)N[C@H](C(=O)N[C@@H](CC(=O)O)C(=O)N[C@H](C(=O)N[C@@H](C)C(=O)N[C@@H](CCSC)C(=O)N[C@H](C(=O)N[C@@H](CO)C(=O)N[C@H](C(=O)N[C@@H](C)C(=O)N[C@@H](CO)C(=O)N[C@H](C(=O)N[C@@H](CCCCN)C(=O)N[C@@H](CCCNC(=N)N)C(=O)O)[C@@H](C)O)C(C)C)[C@@H](C)O)[C@@H](C)O)C(C)C)C(C)C)C(C)C)[C@@H](C)CC [Ece1-IV], the kon (Cyclin H (CCNH)) is reported as 49.8 M⁻¹ s⁻¹.
CC[C@H](C)[C@H](NC(=O)[C@H](CO)NC(=O)[C@H](CCC(N)=O)NC(=O)[C@H](CCC(N)=O)NC(=O)[C@@H](NC(=O)CNC(=O)[C@@H](NC(=O)[C@H](C)NC(=O)[C@@H](NC(=O)[C@H](CCCNC(=N)N)NC(=O)[C@H](C)NC(=O)[C@@H](NC(=O)[C@@H](NC(=O)[C@H](CCC(=O)O)NC(=O)[C@@H]1CCCN1C(=O)[C@H](CC(C)C)NC(=O)[C@H](CCCNC(=N)N)NC(=O)[C@@H](NC(=O)[C@@H](NC(=O)[C@H](C)NC(=O)[C@H](CC(N)=O)NC(=O)[C@H](C)NC(=O)[C@@H](NC(=O)[C@H](CC(=O)O)NC(=O)[C@H](CC(=O)O)NC(=O)[C@H](CC(N)=O)NC(=O)[C@H](C)NC(=O)CNC(=O)[C@@H](N)CC(=O)O)C(C)C)C(C)C)C(C)C)[C@@H](C)CC)C(C)C)C(C)C)[C@@H](C)O)C(C)C)C(=O)N[C@@H](CCC(=O)O)C(=O)N[C@@H](CC(N)=O)C(=O)N[C@@H](C)C(=O)N[C@@H](CCCCN)C(=O)N[C@@H](CCCNC(=N)N)C(=O)O [Ece1-V] gave a kon (Cyclin H (CCNH)) of 228 M⁻¹ s⁻¹.
For CN(C)C/C=C/C(=O)Nc1ccc(C(=O)Nc2cccc(Nc3ncc(Cl)c(-c4c[nH]c5ccccc45)n3)c2)cc1 [THZ1], the “CCNH and γ-H2AX expression” value (A549 cells) was “prominently elevated CCNH and γ-H2AX expression”.
